These results are taken from patent publication US7071161B2, “Variants of corticotropin releasing hormone receptor Type 1 and uses thereof” (The University of Tennessee Research Corporation, priority 2001, dated 2006).

Test [1] deals with CRH-R1 mRNA. Kind of test: CRH-R1 isoform expression by nested RT-PCR in treated SKMEL188 melanoma cells. Conditions: human melanoma cells SKMEL188; 24 hours; result in words. Format: cell-based. How it is done:
(§1) In some experiments, SKMEL188, HaCaT and C4-1 cells were also treated with TPA, forskolin or a mixture of IBMX (3-isobutyl-1-methylxanthine) and dbcAMP (N6, 2′-O-dibutyryladenosine 3′:5′-cyclic monophosphate sodium) (all from Sigma). Briefly, the cells were transferred to 75 cm^2 flasks ( 10^6 cells/flask) and cultured for 24 hours in standard culture medium. Then the following compounds were added to the separate cultures: TPA (200 nM), forskolin (10^−5 M), IBMX (5×10^−4 M), and dbcAMP (10^−3 M). Controls were represented by untreated cultures. The cells were incubated for 24 hours, detached, collected by centrifugation, and dissolved in RNA isolation solution (Trizol reagent).
(§2) Total RNA was extracted using a Trizol isolation kit (Gibco-BRL, Gaithersburg, Md.). The synthesis of first-strand cDNA was performed using the Superscript preamplification system (Gibco-BRL). Five μg of total RNA per reaction was reverse transcribed using oligo(dT) as the primer.
(§3) Nested PCR was used to detect different CRH-R1 isoforms. The first round of amplification of the human CRH-R1 fragment spanning exons 2–7 was conducted using 2 μl of cDNA and primers P110: 5′-[…]-3′ (sense) (SEQ ID No. 15) and P111: 5′-[…]-3′ (antisense) (SEQ ID No. 16). An aliquot of the PCR mixture from the first round of amplification was transferred to a new tube, and a second round of PCR was conducted. […]

Test [2] concerns CRH-R1 mRNA. Nature of the test: CRH-R1 isoform expression by nested RT-PCR in treated HaCaT immortalized keratinocytes. As to conditions: 24 hours, result in words. Format: cell-based, human. How it is done:
as §1, §2, §3

Test [3] has as its target T1, CRH-R1α (Homo sapiens, UniProt P34998).
T1 construct: expressed in transfected cells; host or cells: COS cells, transient transfection with pCRFR1α
T1 sequence (P34998 24-415): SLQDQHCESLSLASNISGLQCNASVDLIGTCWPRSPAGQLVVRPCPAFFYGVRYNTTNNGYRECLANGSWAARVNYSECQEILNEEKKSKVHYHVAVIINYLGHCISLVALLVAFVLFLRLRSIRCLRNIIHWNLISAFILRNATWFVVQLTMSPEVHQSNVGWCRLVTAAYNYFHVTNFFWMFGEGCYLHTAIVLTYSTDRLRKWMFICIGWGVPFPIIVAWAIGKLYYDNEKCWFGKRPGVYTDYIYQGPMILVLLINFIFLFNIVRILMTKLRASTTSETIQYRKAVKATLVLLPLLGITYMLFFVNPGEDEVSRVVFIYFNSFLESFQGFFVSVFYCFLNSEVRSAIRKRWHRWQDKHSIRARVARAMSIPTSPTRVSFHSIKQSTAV
Kind of test: cAMP accumulation in CRF or urocortin-stimulated COS cells cotransfected with CRH-R1α and isoform e or h. Format: cell-based. As to conditions: coexpression of the isoform with CRH-R1α, FIG. 7C. How it is done:
COS cells were propagated in DMEM medium (GIBCO) supplemented with 10% Fetal Bovine serum and antibiotics (GIBCO). Ten thousand cells were routinely transfected in each well of opaque 96-well plate (Packard) by Lipophectamine (Invitrogen, Carlsbad, Calif.) according to the manufacturer's protocol.
Receptor isoforms e and h were tested for their ability to produce soluble forms of the CRH receptor that would affect the activity of the most prevalent CRH-R1α isoform. To allow detection by immunoblotting, a cDNA for the V5 protein was attached to the cDNA for the isoforms in the constructs. The constructs were thus transfected into COS cells and tested as to whether the isoform messages were translatable, and whether cotransfection of CRH-R1α with CRH-R1e or h affects the activity of CRH-R1α.
Cyclic AMP concentration was measured by a cAMP functional assay kit (Packard BioScience, Meriden, Conn.). Stimulated cells were washed 3 times by PBS and incubated for 1 hour in 25 μl of lysis buffer at room temperature. The signal was measured using a Fusion α instrument (Packard BioScience), and cAMP concentrations were recalculated from the standard curve.
A general note: Changes in cAMP serve as a functional read-out for many G protein-coupled receptors.

Turning to `CCCCCCCCCCCCCC(=O)O[C@@H]1[C@@H](C)[C@@]2(O)[C@@H](C=C(CO)C[C@]3(O)C(=O)C(C)=C[C@@H]23)[C@@H]2C(C)(C)[C@]12OC(C)=O` [TPA, phorbol 12-myristate 13-acetate], the “change of CRH-R1 splicing pattern versus untreated control” value was “shifted the CRH-R1 splicing pattern from the CRH-R1d to the CRH-R1α isoform” in test [1]; “induced insertion of a 110 bp fragment between exons 4 and 5 of CRH-R1” in test [2].

B1: CRH-R1h: human CRH receptor type 1 isoform with cryptic exon between exons 4 and 5; truncated protein with CRH-binding domain only (protein, listed as Homo sapiens)
chain: MGGHPQLRLVKALLLLGLNPVSASLQDQHCESLSLASNISGLQCNASVDLIGTCWPRSPAGQLVVRPCPAFFYGVRYNTTNNGYRECLANGSWAARVNYSECQEILNEEEPGTQAQPGRAHRGGT
modifications: amino acid sequence of human CRH-R1h gene GenBank Accession No. AF374231
B1: the “CRH or urocortin-stimulated cAMP accumulation mediated by CRF-R1α” value in test [3] was “inhibits”; in test [3] (listed as CRF-R1h) it was “stimulates”.
